Source: patent publication US20210386835A1, “AN ANTIMICROBIAL COMPOSITION FOR SELECTIVELY INHIBITING GROWTH OF P. ACNES BACTERIA” (priority 2018, published 2021)

B1: Endolysin: recombinant P. acnes phage endolysin cloned from Propionibacterium phage 29399B_C, 284 amino acids, expressed in E. coli (protein)
chain: MRYIPAAHHSAGSNHPVNRVVIHATCPDVGFPSASRKGRAVSTANYFASPSSGGSAHYVCDIGETVQCLSEGTIGWHAPPNPHSLGIEICADGGSHASFRVPGHAYTREQWLDPRVWPAVEKAAILCRRLCDKYNVPKRKLSAADLKAGRRGVCGHVDVTDAWHQSDHDDPGPWFPWDRFMAVVNGHNESGELTVADVKALHDQIKQLSAQLAGSVNKLHHDVGVVQVQNGDLGKRVDALSWVKNPVTGKLWRTKDALWSVWYYVLECRSRIDRLESAVNGLKKLEHHHHHH
modifications: His6 tag; Polypeptide sequence of Endolysin with C-terminal Histidine tag (x6)

Test system: P. acnes 6919 strain (ATCC, USA)
Assay: Contact kill assay against P. acnes (2 h exposure, colony count)
Type: cell-based, Propionibacterium acnes
Settings: 10 mM HEPES pH 7.0, 37° C., relative to control
Description: P. acnes 6919 strain (ATCC, USA) was grown under anaerobic conditions on RCM agar from Glycerol stocks. A loopful of culture from glycerol stock was streaked on freshly prepared RCM agar plate and incubated at 37° C. anaerobically for 4-5 days. After the incubation, the culture was taken from the plate and re-suspended in saline and then centrifuged at 8000 rpm for 6 minutes at 4° C. The pellet obtained was re-suspended in 10 mM HEPES buffer (pH 7.0). An OD600 culture of 0.5 was made in HEPES buffer. 1:10 dilution of 0.5 OD adjusted culture was used for contact kill assay corresponding to 10^6 cells per ml. […] The contact assay was performed in 10 mM HEPES buffer (pH 7.0). For control, 181 μl of 1:10 diluted […] adjusted culture was mixed with 19 μl of HEPES buffer to make a volume of 200 μl. […] The mixture was mixed and incubated at 37° C. for 2 hours in shaker incubator. Post incubation, the samples were neutralised by serial 1:10 dilution in D/E broth followed by saline dilutions. 100 μl of each dilution was plated on fresh RCM agar plates and allowed to dry. The plates were sealed with parafilm and incubated at 37° C. in anaerobic chamber for 4-5 days. Post incubation, colonies were counted and titer was estimated as log CFU/ml. The relative log reductions of individual and combination treatment were calculated with respect to control and the data is presented in the table below: […]

Molecule | Relative log reduction (Thymol 0.01%) | Relative log reduction (Thymol 0.02%) | Relative log reduction (Endolysin 3 μM)
Cc1ccc(C(C)C)c(O)c1 [Thymol, thymol] | 0.33 | 2.02 | –
B1 | – | – | 1.17
